Experiments:
SMARCA2 = SMARCA2 (Homo sapiens, UniProt P51531); assay: HiBit assay in engineered HT1080 CRISPR knock-in cell, 6 hrs (B series), SMARCA2; type: cell-based; conditions: 6 hrs incubation; for DC50: read-out: SMARC A2 HT1080 HiBit DC50; for Dmax: HT-1080, HT1080 CRISPR knock-in cells, read-out: SMARC A2 HT1080 HiBit Dmax (%)
Method in brief: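 Using a 6 hr treatment window at 37° C and 5% CO2, tagged HT1080 knock-in cells were exposed to test compounds with DMSO vehicle held at 0.1%. Signal came from lytic LgBiT/substrate reagent added after incubation, with control wells lacking LgBiT, and was read as luminescence.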

SMARCA4 = SMARCA4 (Homo sapiens, UniProt P51532); assay: HiBit assay in engineered HT1080 CRISPR knock-in cell, 6 hrs (B series), SMARCA4; type: cell-based; conditions: 6 hrs incubation; for DC50: HT1080 CRISPR knock-in cells, read-out: SMARC A4 HT1080 HiBit DC50; for Dmax: HT-1080, HT1080 CRISPR knock-in cells, read-out: SMARC A4 HT1080 HiBit Dmax(%)
Chain of SMARCA4 (P51532 whole entry): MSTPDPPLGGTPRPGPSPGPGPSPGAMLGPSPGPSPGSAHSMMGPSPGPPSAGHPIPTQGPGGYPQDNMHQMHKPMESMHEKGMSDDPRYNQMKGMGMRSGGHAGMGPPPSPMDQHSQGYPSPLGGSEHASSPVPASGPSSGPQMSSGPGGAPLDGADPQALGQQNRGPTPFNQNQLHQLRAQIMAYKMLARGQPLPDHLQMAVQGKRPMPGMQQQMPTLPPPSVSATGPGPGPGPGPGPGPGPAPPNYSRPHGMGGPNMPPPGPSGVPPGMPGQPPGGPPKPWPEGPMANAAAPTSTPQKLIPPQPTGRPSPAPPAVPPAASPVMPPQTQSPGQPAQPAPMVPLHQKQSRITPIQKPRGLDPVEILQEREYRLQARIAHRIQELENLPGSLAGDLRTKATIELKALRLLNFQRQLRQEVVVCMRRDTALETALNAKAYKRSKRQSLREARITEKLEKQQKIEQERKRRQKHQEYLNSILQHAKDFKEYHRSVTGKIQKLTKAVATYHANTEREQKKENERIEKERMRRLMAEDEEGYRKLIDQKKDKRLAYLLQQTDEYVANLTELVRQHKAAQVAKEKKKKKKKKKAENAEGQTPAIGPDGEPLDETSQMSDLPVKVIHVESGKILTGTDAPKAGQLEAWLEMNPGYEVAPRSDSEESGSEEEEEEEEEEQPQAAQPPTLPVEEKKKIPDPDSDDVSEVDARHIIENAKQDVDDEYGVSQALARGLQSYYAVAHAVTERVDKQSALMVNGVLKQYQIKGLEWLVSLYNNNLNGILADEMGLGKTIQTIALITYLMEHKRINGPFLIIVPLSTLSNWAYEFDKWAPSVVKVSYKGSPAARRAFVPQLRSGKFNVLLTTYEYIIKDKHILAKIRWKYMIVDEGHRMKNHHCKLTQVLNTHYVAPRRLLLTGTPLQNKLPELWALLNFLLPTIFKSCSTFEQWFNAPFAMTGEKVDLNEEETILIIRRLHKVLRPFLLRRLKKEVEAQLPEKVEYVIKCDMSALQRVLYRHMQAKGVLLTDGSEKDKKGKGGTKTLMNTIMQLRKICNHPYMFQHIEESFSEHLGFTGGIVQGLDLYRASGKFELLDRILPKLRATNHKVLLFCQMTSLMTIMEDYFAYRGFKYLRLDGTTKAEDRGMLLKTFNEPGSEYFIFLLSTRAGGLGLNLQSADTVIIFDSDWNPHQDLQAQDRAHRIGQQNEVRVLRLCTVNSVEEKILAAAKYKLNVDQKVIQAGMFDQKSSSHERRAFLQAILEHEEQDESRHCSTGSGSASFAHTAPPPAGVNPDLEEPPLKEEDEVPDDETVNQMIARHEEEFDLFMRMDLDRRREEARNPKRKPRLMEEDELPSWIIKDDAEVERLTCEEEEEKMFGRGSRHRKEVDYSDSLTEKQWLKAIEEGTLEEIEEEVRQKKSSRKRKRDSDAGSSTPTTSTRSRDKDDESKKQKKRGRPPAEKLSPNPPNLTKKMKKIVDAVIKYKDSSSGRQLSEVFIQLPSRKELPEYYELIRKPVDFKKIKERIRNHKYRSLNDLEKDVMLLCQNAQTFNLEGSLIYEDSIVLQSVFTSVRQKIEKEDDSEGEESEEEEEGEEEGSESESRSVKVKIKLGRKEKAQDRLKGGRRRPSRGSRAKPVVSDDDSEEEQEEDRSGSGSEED
Method in brief: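 Compounds were dispensed first, then HT1080 knock-in cells added and incubated for 6 hrs at 37° C. Next, detection reagent containing LgBiT and lytic substrate was added. Plates were shaken 10 min and centrifuged, and luminescence was measured.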

Chain of SMARCA2 (P51531 whole entry): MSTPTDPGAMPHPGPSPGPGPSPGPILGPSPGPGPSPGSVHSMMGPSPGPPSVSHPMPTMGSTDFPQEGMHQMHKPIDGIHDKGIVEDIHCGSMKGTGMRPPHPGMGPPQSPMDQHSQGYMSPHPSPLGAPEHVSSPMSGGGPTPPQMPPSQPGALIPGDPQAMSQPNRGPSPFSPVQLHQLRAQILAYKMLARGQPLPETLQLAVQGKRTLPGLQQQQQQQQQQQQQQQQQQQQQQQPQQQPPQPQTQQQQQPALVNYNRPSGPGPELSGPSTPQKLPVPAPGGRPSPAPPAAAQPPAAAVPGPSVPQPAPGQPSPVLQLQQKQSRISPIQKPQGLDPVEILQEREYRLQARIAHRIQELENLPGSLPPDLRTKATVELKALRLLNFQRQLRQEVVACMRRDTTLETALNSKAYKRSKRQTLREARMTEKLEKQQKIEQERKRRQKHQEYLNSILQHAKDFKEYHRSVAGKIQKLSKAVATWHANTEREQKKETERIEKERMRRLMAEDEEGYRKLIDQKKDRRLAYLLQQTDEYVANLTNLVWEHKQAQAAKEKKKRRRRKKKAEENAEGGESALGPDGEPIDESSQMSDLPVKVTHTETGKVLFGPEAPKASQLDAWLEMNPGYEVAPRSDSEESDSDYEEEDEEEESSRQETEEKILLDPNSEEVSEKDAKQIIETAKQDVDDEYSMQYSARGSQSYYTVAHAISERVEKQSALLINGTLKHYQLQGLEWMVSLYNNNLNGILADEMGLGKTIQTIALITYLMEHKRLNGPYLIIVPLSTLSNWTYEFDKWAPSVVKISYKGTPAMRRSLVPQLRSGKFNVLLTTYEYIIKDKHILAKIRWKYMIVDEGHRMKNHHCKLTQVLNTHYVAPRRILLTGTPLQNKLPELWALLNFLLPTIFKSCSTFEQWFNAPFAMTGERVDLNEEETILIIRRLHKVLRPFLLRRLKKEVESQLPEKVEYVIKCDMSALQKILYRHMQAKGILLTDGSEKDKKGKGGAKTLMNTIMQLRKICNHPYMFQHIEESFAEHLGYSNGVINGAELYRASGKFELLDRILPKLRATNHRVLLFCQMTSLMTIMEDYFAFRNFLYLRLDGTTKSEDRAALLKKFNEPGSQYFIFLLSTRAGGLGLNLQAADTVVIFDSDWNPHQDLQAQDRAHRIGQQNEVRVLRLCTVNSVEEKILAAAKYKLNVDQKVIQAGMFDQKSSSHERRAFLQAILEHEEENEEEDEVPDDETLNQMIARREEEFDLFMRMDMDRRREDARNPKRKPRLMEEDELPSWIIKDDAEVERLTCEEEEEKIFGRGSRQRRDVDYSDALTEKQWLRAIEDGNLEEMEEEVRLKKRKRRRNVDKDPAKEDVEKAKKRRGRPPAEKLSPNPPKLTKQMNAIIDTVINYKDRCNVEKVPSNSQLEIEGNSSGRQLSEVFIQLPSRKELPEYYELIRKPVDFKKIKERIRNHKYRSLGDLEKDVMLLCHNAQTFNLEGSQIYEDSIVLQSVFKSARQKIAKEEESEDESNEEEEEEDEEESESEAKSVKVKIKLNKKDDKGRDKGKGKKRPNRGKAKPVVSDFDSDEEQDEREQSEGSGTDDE

| SMILES | DC50 (SMARCA2; HT1080 CRISPR knock-in cells) [nM] | Dmax (SMARCA2) [%] | DC50 (SMARCA4) [nM] | Dmax (SMARCA4) [%] | SMARC A2 HT1080 HiBit Dmax (%) (SMARCA2; HT1080 CRISPR knock-in cells) |
| --- | --- | --- | --- | --- | --- |
| C[C@H](NC(=O)[C@@H]1C[C@@H](O)CN1C(=O)[C@@H](n1cc(C2CCC(CN3CCN(c4ccc5c(c4)-n4c(nc(=O)c6c(Cl)cccc64)C54CCCCC4)CC3)CC2)nn1)C(C)(C)C)c1ccc(-c2scnc2C#CCN2CCOCC2)cc1 (stereo partly drawn) [Compound B140, (2S,4R)-1-((S)-2-(4-((1s,4R)-4-((4-(4′-chloro-5′-oxo-5′H-spiro[cyclohexane-1,7′-indolo[1,2-a]quinazolin]-10′-yl)piperazin-1-yl)methyl)cyclohexyl)-1H-1,2,3-triazol-1-yl)-3,3-dimethylbutanoyl)-4-hydroxy-N-((S)-1-(4-(4-(3-morpholinoprop-1-yn-1-yl)thiazol-5-yl)phenyl)ethyl)pyrrolidine-2-carboxamide] | < 100 | > 90 | < 100 | 50 to 69 | – |
| C[C@H](NC(=O)[C@@H]1C[C@@H](O)CN1C(=O)[C@@H](n1cc([C@H]2CC[C@H](CN3CCC(c4ccc5c(c4)-n4c(nc(=O)c6c(Cl)cccc64)C5(C)C)CC3)CC2)nn1)C(C)(C)C)c1ccc(-c2scnc2C#N)cc1 [Compound B141, (2S,4R)-1-((S)-2-(4-((1r,4S)-4-((4-(4-chloro-7,7-dimethyl-5-oxo-5,7-dihydroindolo[1,2-a]quinazolin-10-yl)piperidin-1-yl)methyl)cyclohexyl)-1H-1,2,3-triazol-1-yl)-3,3-dimethylbutanoyl)-N-((S)-1-(4-(4-cyanothiazol-5-yl)phenyl)ethyl)-4-hydroxypyrrolidine-2-carboxamide] | < 100 | > 90 | 100 to 500 | < 50 | – |
| Cc1ncsc1-c1ccc2c(NC(=O)[C@@H]3C[C@@H](O)CN3C(=O)[C@@H](n3cc([C@H]4CC[C@H](CN5CCC(c6ccc7c(c6)-n6c(nc(=O)c8c(Cl)cccc86)C7(C)C)CC5)CC4)nn3)C(C)(C)C)nccc2c1 [Compound B143, (2S,4R)-1-((S)-2-(4-((1r,4S)-4-((4-(4-chloro-7,7-dimethyl-5-oxo-5,7-dihydroindolo[1,2-a]quinazolin-10-yl)piperidin-1-yl)methyl)cyclohexyl)-1H-1,2,3-triazol-1-yl)-3,3-dimethylbutanoyl)-4-hydroxy-N-(6-(4-methylthiazol-5-yl)isoquinolin-1-yl)pyrrolidine-2-carboxamide] | 100 to 500 | 70 to 90 | > 1000 | < 50 | – |
| Cc1ncsc1-c1ccc2c(c1)CCC[C@@H]2NC(=O)[C@@H]1C[C@@H](O)CN1C(=O)[C@@H](n1cc([C@H]2CC[C@H](CN3CCC(c4ccc5c(c4)-n4c(nc(=O)c6c(Cl)cccc64)C5(C)C)CC3)CC2)nn1)C(C)(C)C [Compound B146, (2S,4R)-1-((S)-2-(4-((1r,4S)-4-((4-(4-chloro-7,7-dimethyl-5-oxo-5,7-dihydroindolo[1,2-a]quinazolin-10-yl)piperidin-1-yl)methyl)cyclohexyl)-1H-1,2,3-triazol-1-yl)-3,3-dimethylbutanoyl)-4-hydroxy-N-((S)-6-(4-methylthiazol-5-yl)-1,2,3,4-tetrahydronaphthalen-1-yl)pyrrolidine-2-carboxamide] | < 100 | > 90 | 100 to 500 | 50 to 69 | – |
| Cc1ncsc1-c1ccc2c(NC(=O)[C@@H]3C[C@@H](O)CN3C(=O)[C@@H](n3cc([C@H]4CC[C@H](CN5CCC(c6ccc7c(c6)-n6c(nc(=O)c8c(Cl)cccc86)C7(C)C)CC5)CC4)nn3)C(C)(C)C)n[nH]c2c1 [Compound B148, (2S,4R)-1-((S)-2-(4-((1r,4S)-4-((4-(4-chloro-7,7-dimethyl-5-oxo-5,7-dihydroindolo[1,2-a]quinazolin-10-yl)piperidin-1-yl)methyl)cyclohexyl)-1H-1,2,3-triazol-1-yl)-3,3-dimethylbutanoyl)-4-hydroxy-N-(6-(4-methylthiazol-5-yl)-1H-indazol-3-yl)pyrrolidine-2-carboxamide] | 100 to 500 | < 50 | < 100 | < 50 | – |
| Cc1cc(-c2scnc2C)ccc1[C@H](C)NC(=O)[C@@H]1C[C@@H](O)CN1C(=O)[C@@H](n1cc([C@H]2CC[C@H](CN3CCC(c4ccc5c(c4)-n4c(nc(=O)c6c(Cl)cccc64)C5(C)C)CC3)CC2)nn1)C(C)(C)C [Compound B149, (2S,4R)-1-((S)-2-(4-((1r,4S)-4-((4-(4-chloro-7,7-dimethyl-5-oxo-5,7-dihydroindolo[1,2-a]quinazolin-10-yl)piperidin-1-yl)methyl)cyclohexyl)-1H-1,2,3-triazol-1-yl)-3,3-dimethylbutanoyl)-4-hydroxy-N-((S)-1-(2-methyl-4-(4-methylthiazol-5-yl)phenyl)ethyl)pyrrolidine-2-carboxamide] | < 100 | > 90 | < 100 | 70 to 90 | – |
| Cc1ncsc1-c1ccc2c(c1)CCC[C@H]2NC(=O)[C@@H]1C[C@@H](O)CN1C(=O)[C@@H](n1cc([C@H]2CC[C@H](CN3CCC(c4ccc5c(c4)-n4c(nc(=O)c6c(Cl)cccc64)C5(C)C)CC3)CC2)nn1)C(C)(C)C [Compound B151, (2S,4R)-1-((S)-2-(4-((1r,4S)-4-((4-(4-chloro-7,7-dimethyl-5-oxo-5,7-dihydroindolo[1,2-a]quinazolin-10-yl)piperidin-1-yl)methyl)cyclohexyl)-1H-1,2,3-triazol-1-yl)-3,3-dimethylbutanoyl)-4-hydroxy-N-((R)-6-(4-methylthiazol-5-yl)-1,2,3,4-tetrahydronaphthalen-1-yl)pyrrolidine-2-carboxamide] | < 100 | > 90 | 100 to 500 | 50 to 69 | – |

Results, then the compound that gave them:

| DC50 (SMARCA2; HT1080 CRISPR knock-in cells) [nM] | Dmax (SMARCA2) [%] | DC50 (SMARCA4) [nM] | Dmax (SMARCA4) [%] | SMARC A2 HT1080 HiBit Dmax (%) (SMARCA2; HT1080 CRISPR knock-in cells) | SMILES |
| --- | --- | --- | --- | --- | --- |
| 100 to 500 | 50 to 69 | < 100 | 50 to 69 | – | Cc1cc(C(C(=O)N2C[C@H](O)C[C@H]2C(=O)N[C@@H](C)c2ccc(-c3scnc3C#CCN3CCC(c4ccc5c(c4)C(C)(C)c4nc(=O)c6c(Cl)cccc6n4-5)CC3)cc2)C(C)C)on1 (stereo partly drawn) [Compound B144, (2S,4R)—N—((S)-1-(4-(4-(3-(4-(4-chloro-7,7-dimethyl-5-oxo-5,7-dihydroindolo[1,2-a]quinazolin-9-yl)piperidin-1-yl)prop-1-yn-1-yl)thiazol-5-yl)phenyl)ethyl)-4-hydroxy-1-(3-methyl-2-(3-methylisoxazol-5-yl)butanoyl)pyrrolidine-2-carboxamide] |
| 100 to 500 | 70 to 90 | 100 to 500 | 50 to 69 | – | Cc1cc(C(C(=O)N2C[C@H](O)C[C@H]2C(=O)N[C@@H](C)c2ccc(-c3scnc3C#CCOCCCN3CCC(c4cccc5c4C(C)(C)c4nc(=O)c6c(Cl)cccc6n4-5)CC3)cc2)C(C)C)on1 (stereo partly drawn) [Compound B145, (2S,4R)-N-((S)-1-(4-(4-(3-(3-(4-(4-chloro-7,7-dimethyl-5-oxo-5,7-dihydroindolo[1,2-a]quinazolin-8-yl)piperidin-1-yl)propoxy)prop-1-yn-1-yl)thiazol-5-yl)phenyl)ethyl)-4-hydroxy-1-(3-methyl-2-(3-methylisoxazol-5-yl)butanoyl)pyrrolidine-2-carboxamide] |
| 100 to 500 | 50 to 69 | 501 to 1000 | 50 to 69 | – | Cc1cc([C@H](C(=O)N2C[C@H](O)C[C@H]2C(=O)N[C@@H](C)c2ccc(-c3scnc3C(=O)NCCCCOCCN3CCC(c4ccc5c(c4)-n4c(nc(=O)c6c(Cl)cccc64)C5(C)C)CC3)cc2)C(C)C)on1 [Compound B147, N-(4-(2-(4-(4-chloro-7,7-dimethyl-5-oxo-5,7-dihydroindolo[1,2-a]quinazolin-10-yl)piperidin-1-yl)ethoxy)butyl)-5-(4-((S)-1-((2S,4R)-4-hydroxy-1-((R)-3-methyl-2-(3-methylisoxazol-5-yl)butanoyl)pyrrolidine-2-carboxamido)ethyl)phenyl)thiazole-4-carboxamide] |
| < 100 | 50 to 69 | 100 to 500 | < 50 | – | Cc1cc(C(C(=O)N2C[C@H](O)C[C@H]2C(=O)N[C@@H](C)c2ccc(-c3scnc3C#CCN3CCC(c4cccc5c4C(C)(C)c4nc(=O)c6c(Cl)cccc6n4-5)CC3)cc2)C(C)C)on1 (stereo partly drawn) [Compound B150, (2S,4R)-N-((S)-1-(4-(4-(3-(4-(4-chloro-7,7-dimethyl-5-oxo-5,7-dihydroindolo[1,2-a]quinazolin-8-yl)piperidin-1-yl)prop-1-yn-1-yl)thiazol-5-yl)phenyl)ethyl)-4-hydroxy-1-(3-methyl-2-(3-methylisoxazol-5-yl)butanoyl)pyrrolidine-2-carboxamide] |
| < 100 | – | < 100 | 70 to 90 | A (A (>90% degradation)) | Cc1cc(C(C(=O)N2C[C@H](O)C[C@H]2C(=O)N[C@@H](CCN2CCC(c3cccc4c3C(C)(C)c3nc(=O)c5c(Cl)cccc5n3-4)CC2)c2ccc(-c3scnc3C)cc2)C(C)C)on1 (stereo partly drawn) [Compound B152, (2S,4R)—N—((S)-3-(4-(4-chloro-7,7-dimethyl-5-oxo-5,7-dihydroindolo[1,2-a]quinazolin-8-yl)piperidin-1-yl)-1-(4-(4-methylthiazol-5-yl)phenyl)propyl)-4-hydroxy-1-(3-methyl-2-(3-methylisoxazol-5-yl)butanoyl)pyrrolidine-2-carboxamide] |
